The record followed here is publication PMC11007773 (ACS Omega, 2024).

Molecules are shown by their SMILES.

This experiment has as its target Human transferrin (Htf) (Homo sapiens, UniProt P02787). Nature of the experiment: isothermal titration calorimetry. The class given is binding.

Sequence of Human transferrin (Htf) (P02787 20-698): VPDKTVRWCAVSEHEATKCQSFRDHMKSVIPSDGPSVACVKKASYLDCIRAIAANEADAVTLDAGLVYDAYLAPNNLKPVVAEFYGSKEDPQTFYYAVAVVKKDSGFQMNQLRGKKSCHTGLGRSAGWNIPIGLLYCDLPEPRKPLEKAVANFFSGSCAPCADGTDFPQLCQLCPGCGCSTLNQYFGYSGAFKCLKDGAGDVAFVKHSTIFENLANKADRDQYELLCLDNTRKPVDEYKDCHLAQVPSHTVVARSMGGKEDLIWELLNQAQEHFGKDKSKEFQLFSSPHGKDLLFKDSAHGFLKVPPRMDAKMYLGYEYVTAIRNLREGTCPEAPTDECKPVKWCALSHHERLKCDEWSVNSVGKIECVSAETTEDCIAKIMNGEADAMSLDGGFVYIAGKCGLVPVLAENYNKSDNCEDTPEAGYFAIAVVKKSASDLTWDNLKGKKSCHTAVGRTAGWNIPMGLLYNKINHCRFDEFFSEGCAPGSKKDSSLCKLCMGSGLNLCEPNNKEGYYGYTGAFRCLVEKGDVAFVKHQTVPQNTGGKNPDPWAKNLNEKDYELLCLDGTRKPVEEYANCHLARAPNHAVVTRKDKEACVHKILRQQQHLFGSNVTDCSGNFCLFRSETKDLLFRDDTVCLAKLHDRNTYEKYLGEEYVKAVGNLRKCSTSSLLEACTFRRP

Compound `O=c1oc2c(O)c(O)cc3c(=O)oc4c(O)c(O)cc1c4c23` [Ellagic acid] showed a Kd of 1450 nM.
